# Results published in paper PMC8033753, “Proadrenomedullin N-Terminal 20 Peptides (PAMPs) Are Agonists of the Chemokine Scavenger Receptor ACKR3/CXCR7” (ACS Pharmacology & Translational Science, 2021).
# Like-named read-outs stand apart in the source and are kept apart here. Where no end group is shown, it is not given here.
# How the values were obtained:
# [1] = target: T1, ACKR3 (Homo sapiens, UniProt P25106); assay: β-arrestin-2 recruitment to ACKR3, nanoluciferase complementation (NanoBiT) in HEK cells; format: cell-based; conditions: for activity toward ACKR3 (β-arrestin-2 recruitment), in words: concentration range up to 9 μM
# T1 construct: expressed in transfected cells; host or cells: HEK293T
# Procedure: (§1) Ligand-induced recruitment of β-arrestin, miniGi or miniGq proteins (engineered GTPase domain of Gα subunit)[46],[47] to the receptors was monitored using NanoBiT technology (Promega), as previously described.[27],[48] HEK293T cells (5 × 10^6 cells) were seeded in 10 cm dishes, and 24 h later, the cells were cotransfected with pNBe plasmids encoding the receptor C-terminally fused to SmBiT and β-arrestin, miniGi, or miniGq N-terminally fused to LgBiT. After 24 h, the cells were detached and incubated for 25 min at 37 °C with Nano-Glo Live Cell substrate diluted 200-fold, distributed into white 96-well plates (1 × 10^5 cells/well), and treated with the indicated concentrations of peptides. Luminescence was recorded during 20 min with a Mithras LB940 luminometer (Berthold Technologies). For the concentration–response curves, the signal recorded with a saturating concentration of full agonist for each receptor was set as 100%. For receptor screening experiments, results were expressed as fold vehicle, and an agonist chemokine (100 nM) listed in the IUPHAR repository of chemokine receptor ligands was included as a positive control for each receptor.
# (§2) Concentration–response curves were fitted to the four-parameter Hill equation using an iterative, least-squares method (GraphPad Prism version 8.0.1). All curves were fitted to data points generated from the mean of at least three independent experiments. Statistical tests, i.e., ordinary one-way ANOVA and post hoc analysis were performed with GraphPad Prism 8.0.1. The p-values are indicated as follows: *, p < 0.05; **, p < 0.01; ***, p < 0.001; and ****, p < 0.0001.
# [2] = target: T2, MrgX2 (Homo sapiens, UniProt Q96LB1); assay: β-arrestin-2 recruitment to MrgX2, NanoBiT in HEK cells; format: cell-based
# T2 construct: expressed in transfected cells; host or cells: HEK293T
# T2 sequence (Q96LB1 1-330): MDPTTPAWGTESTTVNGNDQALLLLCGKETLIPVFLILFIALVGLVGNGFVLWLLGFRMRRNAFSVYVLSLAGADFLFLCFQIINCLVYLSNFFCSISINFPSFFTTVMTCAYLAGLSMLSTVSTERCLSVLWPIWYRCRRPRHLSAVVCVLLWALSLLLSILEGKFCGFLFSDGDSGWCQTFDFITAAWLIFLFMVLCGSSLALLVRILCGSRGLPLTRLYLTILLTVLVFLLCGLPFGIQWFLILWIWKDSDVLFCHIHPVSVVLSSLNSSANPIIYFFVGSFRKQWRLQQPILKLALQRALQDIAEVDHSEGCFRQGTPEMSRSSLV
# Procedure: as §1, §2
# [3] = target: T3, GPR182 (Homo sapiens, UniProt O15218); assay: β-arrestin-2 recruitment to GPR182 (NanoBiT screen); format: cell-based; conditions: peptides 3 μM
# T3 construct: expressed in transfected cells; host or cells: HEK293T
# Procedure: as §1
# [4] = tested on: HEK-ACKR3 cells; assay: PAMP-12-FAM uptake by HEK-ACKR3 cells, imaging flow cytometry; format: cell-based, human; conditions: chemokine 200 nM, 15 min preincubation; PAMP-12-FAM 3 μM, 45 min at 37 °C
# Procedure: HEK293T or HEK-ACKR3 cells were harvested in Opti-MEM and distributed into 96-well plates (3 × 10^5 cells/well). […] At 24 h post-transfection, the cells were harvested and treated as described above. Dead cells were excluded using Zombie NIR viability dye (BioLegend). Images of 1 × 10^4 in-focus, living single cells were acquired with an ImageStream Mark II imaging flow cytometer (Amnis) equipped with an extended depth of field (EDF) module and using 60× magnification. Samples were analyzed using Ideas6.2 software. The number of spots per cell was determined using a mask-based software wizard.
# [5] = tested on: all known classical and atypical human chemokine receptors; assay: β-arrestin-2 recruitment screen toward all chemokine receptors (NanoBiT); format: cell-based; conditions: peptides 3 μM, fold change over vehicle
# Procedure: as §1
# [6] = pEC50 ± S.E.M, β-arrestin-2 recruitment, ACKR3 (Supplementary Table 2), HEK cells, NanoBiT, three independent experiments
# [7] = EC50, β-arrestin-2 recruitment toward MrgX2, HEK cells, NanoBiT, normalised to full agonist, three independent experiments
# [8] = pEC50 ± S.E.M, β-arrestin recruitment, MrgX2 (Supplementary Table 1), HEK cells, NanoBiT, NA: no activity detected in the concentration range tested
# T3 sequence (O15218 whole entry, species assumed): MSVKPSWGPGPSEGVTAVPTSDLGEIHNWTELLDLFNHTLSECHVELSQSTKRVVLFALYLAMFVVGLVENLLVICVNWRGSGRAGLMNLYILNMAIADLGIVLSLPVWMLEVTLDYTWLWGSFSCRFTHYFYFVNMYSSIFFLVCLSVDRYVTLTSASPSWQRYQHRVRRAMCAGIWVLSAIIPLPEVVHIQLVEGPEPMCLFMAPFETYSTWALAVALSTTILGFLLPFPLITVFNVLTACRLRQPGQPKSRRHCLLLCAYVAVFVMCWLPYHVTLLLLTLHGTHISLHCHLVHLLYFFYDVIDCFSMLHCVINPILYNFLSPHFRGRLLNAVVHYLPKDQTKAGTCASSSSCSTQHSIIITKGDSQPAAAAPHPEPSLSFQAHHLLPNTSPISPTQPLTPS
# T1 sequence (P25106 whole entry): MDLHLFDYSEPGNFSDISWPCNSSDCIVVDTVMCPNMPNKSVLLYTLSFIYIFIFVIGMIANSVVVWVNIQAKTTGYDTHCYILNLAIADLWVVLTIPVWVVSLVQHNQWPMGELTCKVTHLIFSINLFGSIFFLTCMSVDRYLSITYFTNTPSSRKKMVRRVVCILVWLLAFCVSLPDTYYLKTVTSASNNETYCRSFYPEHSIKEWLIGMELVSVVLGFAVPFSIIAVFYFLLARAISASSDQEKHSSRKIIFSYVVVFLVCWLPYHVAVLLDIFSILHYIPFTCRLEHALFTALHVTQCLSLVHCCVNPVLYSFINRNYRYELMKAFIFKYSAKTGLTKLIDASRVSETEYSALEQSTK
Compound,"EC50 [1, 6] [nM]",EC50 [2] [nM],other results
CC(C)C[C@H](NC(=O)[C@H](C)NC(=O)[C@H](Cc1c[nH]c2ccccc12)NC(=O)[C@H](CCCCN)NC(=O)[C@H](CC(N)=O)NC(=O)[C@H](Cc1c[nH]c2ccccc12)NC(=O)[C@H](CCCCN)NC(=O)[C@H](CCCCN)NC(=O)[C@H](CCCNC(=N)N)NC(=O)[C@@H](N)Cc1ccccc1)C(=O)N[C@@H](CO)C(=O)N[C@@H](CCCNC(=N)N)C(=O)O,1580,2290,
CC[C@H](C)[C@H](NC(=O)[C@H](CCC(N)=O)NC(=O)[C@H](Cc1c[nH]cn1)NC(=O)[C@H](C)NC(=O)[C@H](CC(C)C)NC(=O)[C@H](CCCCN)NC(=O)[C@H](CCC(N)=O)NC(=O)[C@@H](NC(=O)[C@@H](NC(=O)[C@@H]1CSSC[C@H](NC(=O)CNC(=O)[C@H](Cc2ccccc2)NC(=O)[C@H](CO)NC(=O)[C@H](CCCNC(=N)N)NC(=O)[C@H](CC(C)C)NC(=O)CNC(=O)[C@H](CCC(N)=O)NC(=O)[C@H](Cc2ccccc2)NC(=O)[C@H](CC(N)=O)NC(=O)[C@H](CC(N)=O)NC(=O)[C@H](CCSC)NC(=O)[C@H](CO)NC(=O)[C@H](CCC(N)=O)NC(=O)[C@H](CCCNC(=N)N)NC(=O)[C@@H](N)Cc2ccc(O)cc2)C(=O)N[C@@H](CCCNC(=N)N)C(=O)N[C@@H](Cc2ccccc2)C(=O)NCC(=O)N[C@@H]([C@@H](C)O)C(=O)N1)[C@@H](C)O)C(C)C)C(=O)N[C@@H](Cc1ccc(O)cc1)C(=O)N[C@@H](CCC(N)=O)C(=O)N[C@@H](Cc1ccccc1)C(=O)N[C@H](C(=O)N[C@@H](CC(=O)O)C(=O)N[C@@H](CCCCN)C(=O)N[C@@H](CC(=O)O)C(=O)N[C@@H](CCCCN)C(=O)N[C@@H](CC(=O)O)C(=O)N[C@@H](CC(N)=O)C(=O)N[C@H](C(=O)N[C@@H](C)C(=O)N1CCC[C@H]1C(=O)N[C@@H](CCCNC(=N)N)C(=O)N[C@@H](CO)C(=O)N[C@@H](CCCCN)C(=O)N[C@H](C(=O)N[C@@H](CO)C(=O)N1CCC[C@H]1C(=O)N[C@@H](CCC(N)=O)C(=O)NCC(=O)N[C@@H](Cc1ccc(O)cc1)C(N)=O)[C@@H](C)CC)C(C)C)[C@@H](C)O [ADM],,,"activity toward GPR182, in words [3]: no activity"
CC(C)C[C@H](NC(=O)[C@H](C)NC(=O)[C@H](Cc1c[nH]c2ccccc12)NC(=O)[C@H](CCCCN)NC(=O)[C@H](CC(N)=O)NC(=O)[C@H](Cc1c[nH]c2ccccc12)NC(=O)[C@H](CCCCN)NC(=O)[C@H](CCCCN)NC(=O)[C@H](CCCNC(=N)N)NC(=O)[C@@H](N)Cc1ccccc1)C(=O)N[C@@H](CO)C(=O)N[C@@H](CCCNC(=N)N)C(N)=O [PAMP-12],,,"activity toward GPR182, in words [3]: no activity; EC50 [2, 7]: 785 nM; EC50 [2, 8]: 776 nM"
"CSCC[C@H](NC(=O)[C@H](CC(C)C)NC(=O)CNC(=O)[C@H](Cc1ccccc1)NC(=O)[C@H](Cc1ccccc1)NC(=O)[C@H](CCC(N)=O)NC(=O)[C@H](CCC(N)=O)NC(=O)[C@@H]1CCCN1C(=O)[C@H](CCCCN)NC(=O)[C@@H]1CCCN1C(=O)[C@@H](N)CCCNC(=N)N)C(N)=O [substance P, reference compound]",,,"activity toward ACKR3 (β-arrestin-2 recruitment), in words ([1]; HEK cells, NanoBiT): no activity"
AFRKKWNKWALSR-NH2,2000,891,
"AMY: CGRP family peptide (KCNTATCATQRLANFLVHSSNNFGAILSSTNVGSNTY; not fully specified (C-terminus, bridges); cysteine pairing not given here; UniProt P10997 34-70, looked up) [reference compound]",,,"activity toward ACKR3 (β-arrestin-2 recruitment), in words ([1]; HEK cells, NanoBiT): No activity"
ARKKWNKWALSR-NH2,46800,933,
ARLDVASEFRKKWNKWA [PAMP1-17],331000,95500,
ARLDVASEFRKKWNKWALSR-NH2 [PAMP],,,"EC50 [1]: > 10000 nM; activity toward GPR182, in words [3]: no activity; EC50 [2, 7]: 6200 nM; EC50 [2, 8]: 6170 nM"
CT: CGRP family peptide [reference compound],,,"activity toward ACKR3 (β-arrestin-2 recruitment), in words ([1]; HEK cells, NanoBiT): No activity"
"CXCL12: chemokine, full agonist of ACKR3; purchased from PeproTech",,,"effect of chemokine preincubation on PAMP-12-FAM accumulation in HEK-ACKR3 cells, in words [4]: reduced PAMP-12 accumulation to background levels"
DVASEFRKKWNKWALSR-NH2 [PAMP 4-20],178000,3310,
FAKKWNKWALSR-NH2,9330,1000,
FKKKWNKWALSR-NH2,3310,1450,
FRAKWNKWALSR-NH2,1350,977,
FRKAWNKWALSR-NH2,269,661,
FRKKANKWALSR-NH2,7590,2000,
FRKKFNKWALSR-NH2,4270,589,
FRKKWAKWALSR-NH2,832,479,
FRKKWDKWALSR-NH2,589,479,
FRKKWNAWALSR-NH2,1260,550,
FRKKWNKAALSR-NH2,2240,2510,

Compound,"EC50 [1, 6] [nM]",EC50 [2] [nM],other results
FRKKWNKFALSR-NH2,1150,1050,
FRKKWNKWAASR-NH2,2880,1480,
FRKKWNKWAFSR-NH2,955,741,
FRKKWNKWALAR-NH2,912,339,
FRKKWNKWALFR-NH2,575,209,
FRKKWNKWALS-NH2 [FRKKWNKWALS -],2570,1550,
FRKKWNKWALSA-NH2,11200,5750,
FRKKWNKWALSK-NH2,1020,794,
FRKKWNKWALTR-NH2,575,269,
FRKKWNKWFLSR-NH2,513,417,
FRKKWNKWGLSR-NH2,1580,1100,
FRKKWNKYALSR-NH2,776,741,
FRKKWNRWALSR-NH2,331,1950,
FRKKWQKWALSR-NH2,776,4680,
FRKKYNKWALSR-NH2,3160,2450,
FRKRWNKWALSR-NH2,759,1910,
FRRKWNKWALSR-NH2,468,2750,
KWNKWALSR-NH2 [PAMP(12–20)],,,"agonist activity toward the other 24 chemokine receptors tested, in words [5]: do not activate"
RKKWNKWALSR-NH2 [- RKKWNKWALSR],28800,2090,
WNKWALSR-NH2 [PAMP 13-20],11700,,
YRKKWNKWALSR-NH2,6760,912,
